In PubChem BioAssay (NCI):
Values joined by “and” are separate entries in the source; they are usually repeats but may differ in a detail not shown here. Equal entries are not always repeated.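 Tested at 5 concentrations; 48 h exposure; 96-well plates; endpoints linearly interpolated, else capped at highest concentration. GI50 is the concentration that inhibits growth by half. TGI denotes the concentration required for complete inhibition of growth.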 *1 amine or outer side, *2 acyl side, *3 side chain or, on linkers, in order; H or OH if unused. Where a SMILES comes first, the peptide text is derived from it. [ ]: non-standard residue; d: D form. The star is where a group is joined. ξ: configuration not given here. X27 = O=C([C@H]1CCC[C@H]1N[*:1])[*:2]; ξW = NC(Cc1c[nH]c2ccccc12)C(=O)O; ξF = NC(Cc1ccccc1)C(=O)O; Boc = CC(C)(C)OC(=O)*; ξK = NCCCCC(N)C(=O)O; ξT = CC(O)C(N)C(=O)O; tBu = CC(C)(C)*

How the values were obtained:
Experiment in all cases: NCI anticancer screen, dose series, 48 h
HOP-62 NSCLC = test system: HOP-62 NSCLC
HS 578T breast = test system: HS 578T breast
SK-MEL-5 melanoma = test system: SK-MEL-5 melanoma
MOLT-4 leukemia = test system: MOLT-4 leukemia
SF-295 CNS = test system: SF-295 CNS
HL-60(TB) leukemia = test system: HL-60(TB) leukemia
A549 NSCLC = test system: A549 NSCLC
SN12C renal = test system: SN12C renal
TK-10 renal = test system: TK-10 renal
NCI-H226 lung = test system: NCI-H226 lung
BT-549 breast = test system: BT-549 breast

| Compound | TGI (HOP-62 NSCLC) | TGI (HS 578T breast) [µM] | TGI (SK-MEL-5 melanoma) [µM] | TGI (MOLT-4 leukemia) [µM] | TGI (SF-295 CNS) [µM] | TGI (HL-60(TB) leukemia) [µM] | TGI (A549 NSCLC) [µM] | TGI (SN12C renal) [µM] | TGI (TK-10 renal) | TGI (NCI-H226 lung) | GI50 (HOP-62 NSCLC) [µM] | GI50 (SK-MEL-5 melanoma) [µM] | GI50 (MOLT-4 leukemia) [µM] | GI50 (SF-295 CNS) [µM] | GI50 (HL-60(TB) leukemia) [µM] | GI50 (A549 NSCLC) [µM] | GI50 (SN12C renal) [µM] | GI50 (TK-10 renal) [µM] | GI50 (NCI-H226 lung) [µM] | TGI (BT-549 breast) [µM] |
| --- | --- | --- | --- | --- | --- | --- | --- | --- | --- | --- | --- | --- | --- | --- | --- | --- | --- | --- | --- | --- |
| COc1ccc(CC2C3=C(CCN2C(=O)C2CCC2)CC2(CC3)OCCO2)cc1O (centres undefined) | > 100 µM | 73.4 | > 100 | > 100 | 45.5 | 76.9 | > 100 | > 100 | > 100 µM | > 100 µM | – | – | – | – | – | – | – | – | – | – |
| COc1cc([C@@H]2c3cc4c(c(O)c3C[C@H]3COC(=O)[C@@H]32)OCO4)cc(OC)c1OC | 57.9 µM and 218 µM and > 100 µM | – | – | – | – | – | – | – | 37.5 µM and 167 µM and > 100 µM | 150 µM and 19.6 µM | 0.249 | 0.0407 | 0.539 | 0.109 | 0.582 | 0.274 | 0.581 | 0.505 | 0.364 | – |
| COC(=O)[C@H](Cc1ccccc1)NC(=O)/C(=C/C(C)C)NC(=O)[C@H](CCSC)NC=O | > 100 µM | – | > 100 | > 100 | > 100 | > 100 | > 100 | > 100 | > 100 µM | > 100 µM | – | – | – | – | – | – | – | – | – | – |
| Nc1ccccc1Nc1ccccc1C(=O)[O-].Nc1ccccc1Nc1ccccc1C(=O)[O-].[Zn+2] | > 100 µM | – | > 100 | > 100 | > 100 | – | > 100 | > 100 | > 100 µM | – | – | – | – | – | – | – | – | – | – | – |
| NC1=NC2=c3ccccc3=C(c3cnccn3)C2(c2cnccn2)c2ccccc21 (centres undefined) | > 100 µM | – | > 100 | 95.8 | > 100 | > 100 | > 100 | > 100 | > 100 µM | > 100 µM | – | – | – | – | – | – | – | – | – | – |
| CC(=O)OC1CC2CCN3C(=O)c4cc5c(cc4[C@H](C1OC(C)=O)C23)OCO5 (some centres undefined) | > 100 µM | – | – | > 100 | > 100 | > 100 | > 100 | > 100 | > 100 µM | > 100 µM | – | – | – | – | – | – | – | – | – | – |
| O=C(NC(Cl)(C(F)(F)F)C(F)(F)F)c1ccc(F)cc1 | > 100 µM | > 100 | > 100 | > 100 | > 100 | > 100 | > 100 | > 100 | > 100 µM | > 100 µM | – | – | – | – | – | – | – | – | – | – |
| CCN1CCCC(C#N)(c2ccccc2)CC1 (centres undefined) | > 100 µM | > 100 | > 100 | > 100 | > 100 | > 100 | > 100 | – | > 100 µM | – | – | – | – | – | – | – | – | – | – | – |
| CCOP(=O)(C=C=C1CCC2[C@@H]3CCc4cc(OC)ccc4C3CC[C@]12C)OCC (some centres undefined) | 30 µM | 40.3 | 14.2 | – | 19.7 | 2.87 | 18.4 | 23 | 25.6 µM | 21.6 µM | – | – | – | – | – | – | – | – | – | – |
| O=C(CC(CC(=O)Oc1c(Br)cc(Br)cc1C(=O)O)C(=O)Oc1c(Br)cc(Br)cc1C(=O)O)Oc1c(Br)cc(Br)cc1C(=O)O | > 100 µM | – | > 100 | > 100 | > 100 | 96.6 | > 100 | > 100 | > 100 µM | 57 µM | – | – | – | – | – | – | – | – | – | – |
| CCOP(=O)(OCC)C(C)(C)N(C)/C(F)=N/C(F)(F)F | > 100 µM | > 100 | > 100 | > 100 | > 100 | > 100 | > 100 | > 100 | > 100 µM | > 100 µM | – | – | – | – | – | – | – | – | – | – |
| Cc1[nH]c(=O)nc2c1C(NCCCN(C)C)c1cc(Cl)ccc1N2 (centres undefined) | 27.9 µM | – | – | 44.6 | 30.7 | 34.4 | 28.1 | 28.2 | 32.5 µM | 31 µM | – | – | – | – | – | – | – | – | – | – |
| CC(=O)OCC(C)C1=C(OC(C)=O)C(=O)C2(C)C/C=C(/C)CC/C=C(\C)CCC(OC(C)=O)C(C)CCC12 (centres undefined) | 27.5 µM | 60 | 30.2 | 27.9 | 31.3 | 27.5 | – | 36.5 | 39 µM | – | – | – | – | – | – | – | – | – | – | – |
| CC(OC(C)(C)C)C1NC(=O)C(CCCCNC(=O)OC(C)(C)C)NC(=O)C(Cc2c[nH]c3ccccc23)NC(=O)C(Cc2ccccc2)NC(=O)[C@H]2CCC[C@H]2NC(=O)C(Cc2ccccc2)NC1=O (some centres undefined) (cyclo([X27][ξF][ξW][ξK](Boc)[ξT](tBu)[ξF])) | > 100 µM | 28.4 | 16.1 | > 100 | 73.7 | > 100 | > 100 | 88.6 | – | > 100 µM | – | – | – | – | – | – | – | – | – | – |
| Clc1c(Cl)c(Cl)c2c(nnn2C2CCCO2)c1Cl (centres undefined) | > 100 µM | 59 | > 100 | 46.3 | > 100 | 38.5 | 65.1 | > 100 | > 100 µM | > 100 µM | – | – | – | – | – | – | – | – | – | – |
| CCOc1ccc(N/C(=C(/C(Cl)=C(/Cl)Nc2ccccc2)[N+](=O)[O-])n2nnc3ccccc32)cc1 | 70.3 µM | – | 37 | > 100 | > 100 | – | > 100 | 47.2 | > 100 µM | > 100 µM | – | – | – | – | – | – | – | – | – | 28.7 |
| NC(=O)C(=O)c1ncn(Cc2ccccc2)c1N | > 100 µM | > 100 | > 100 | – | > 100 | > 100 | > 100 | > 100 | > 100 µM | > 100 µM | – | – | – | – | – | – | – | – | – | – |
